Measured values published in patent US20250302823A1, “COMPOSITIONS AND METHODS FOR TREATING HEPATIC […] GLYCINE TRANSPORT INHIBITORS” (Disc Medicine, Inc., priority 2022, published 2025).

Tests used:
[1] = tested on: ALAS1 and GlyT1 mRNA in HepG2 cells; assay: qPCR expression of ALAS1 and GlyT1 in HepG2 cells after phenobarbital
GlyT1 = biological target: T1, GlyT1 (Homo sapiens, UniProt P48067); assay: 3H-glycine uptake in HepG2 cells overexpressing GlyT1; type: cell-based
T1 construct: expressed in transfected cells; host or cells: HepG2, lentiviral infection (pLenti6.3-GlyT1)
T1 sequence (P48067 1-706): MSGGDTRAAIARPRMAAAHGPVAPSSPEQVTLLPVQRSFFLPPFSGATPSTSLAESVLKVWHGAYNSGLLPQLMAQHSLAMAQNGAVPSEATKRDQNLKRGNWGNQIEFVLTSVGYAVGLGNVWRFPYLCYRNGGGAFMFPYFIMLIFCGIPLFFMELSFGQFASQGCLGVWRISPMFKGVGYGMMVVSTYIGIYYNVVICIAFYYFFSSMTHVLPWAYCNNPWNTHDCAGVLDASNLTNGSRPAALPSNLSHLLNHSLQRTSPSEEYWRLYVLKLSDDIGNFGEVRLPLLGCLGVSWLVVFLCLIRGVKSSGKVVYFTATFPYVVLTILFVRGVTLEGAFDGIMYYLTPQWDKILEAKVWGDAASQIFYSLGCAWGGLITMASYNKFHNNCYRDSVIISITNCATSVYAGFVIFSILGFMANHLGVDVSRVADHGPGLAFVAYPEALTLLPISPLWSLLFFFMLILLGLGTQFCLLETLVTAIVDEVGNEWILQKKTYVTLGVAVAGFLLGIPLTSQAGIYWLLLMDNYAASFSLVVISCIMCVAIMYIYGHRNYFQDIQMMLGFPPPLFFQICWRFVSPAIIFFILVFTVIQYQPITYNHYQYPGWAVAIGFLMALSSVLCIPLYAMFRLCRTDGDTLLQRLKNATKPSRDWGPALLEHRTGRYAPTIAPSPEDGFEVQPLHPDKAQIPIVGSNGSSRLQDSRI
Experimental: The hepatic originated cell line HepG2 cell was engineered via lentiviral infection to overexpress untagged GlyT1 (FIG. 4A) or HA-Flag-tagged GlyT1 (FIG. 4B). Overexpression of GlyT1 was used to mimic the phenobarbital induced AIP symptoms observed in HepG2 as described in Example 3. The HA-Flag tagged construct was used to confirm the overexpression of the GlyT1 protein by Western blot. Overexpression of the untagged construct was confirmed by qPCR. The cells were cultured in the presence of the GlyT1 inhibitor bitopertin at room temperature for 60 min and then incubated with 20 nM ^3H-labeled glycine in the presence of 25 μM unlabeled glycine for 60 min. The uptake of glycine was measured by detection of radioisotope levels.

[2] = tested on: HepG2 cells transduced with shHMBS, GlyT1, ALAS1; assay: 5-ALA and PBG production in AIP cellular model (HepG2 with shHMBS, GlyT1, ALAS1); type: cell-based, human
Text: The hepatic origin cell line HepG2 was engineered to express shRNA against HMBS, a gene in the heme biosynthesis pathway whose loss-of-function mutations cause hepatic porphyria. The shRNA reduced HMBS mRNA by 50% and HMBS protein by 70%. Hepatic porphyria is a dormant disease activated by increased expression of ALAS1. To establish the cellular model that resembles the pathologic status of hepatic porphyria, the HepG2 cells with HMBS knockdown were also transduced by lentivirus to overexpress ALAS1 and GlyT1.
The normal plasma glycine concentration in human adults ranges from 0.12 to 0.55 mM. To confirm GlyT1 inhibitors such as bitopertin can decrease production of toxic metabolites at physiological condition, the modified HepG2 cells were treated with bitopertin in the presence of different concentrations of glycine (0.1-1 mM).

| Compound | increase of mRNA of ALAS1 and GlyT1 ([1]; HepG2, 24 h after phenobarbital treatment) | increase of mRNA of ALAS1 and GlyT1 ([1]; HepG2, 48 h after phenobarbital treatment) | IC50 (GlyT1; engineered HepG2 overexpressing untagged or HA-Flag-tagged GlyT1, 20 nM 3H-glycine + 25 μM unlabeled glycine, 60 min) | glycine uptake in the engineered HepG2 cells (GlyT1; in the presence of bitopertin) | toxic metabolite 5-ALA at different glycine concentrations ([2]; glycine 0.1-1 mM in medium, FIG. 6A) | toxic metabolite PBG at different glycine concentrations ([2]; glycine 0.1-1 mM in medium, FIG. 6B) | production of toxic metabolite 5-ALA ([2]; modified HepG2 cells, FIG. 5A) | production of toxic metabolite PBG ([2]; modified HepG2 cells, FIG. 5B) |
| --- | --- | --- | --- | --- | --- | --- | --- | --- |
| CCC1(c2ccccc2)C(=O)NC(=O)NC1=O [phenobarbital] | 3 fold | 6 fold | – | – | – | – | – | – |
| C[C@H](Oc1ccc(S(C)(=O)=O)cc1C(=O)N1CCN(c2ncc(C(F)(F)F)cc2F)CC1)C(F)(F)F [bitopertin] | – | – | 710 to 1540 nM | significantly reduced | consistent reduction | consistent reduction | significantly decrease | significantly decrease |
